The values below come from DBAASP.

Each structure is given as a SMILES string. ≈ marks a conversion by molar mass, not a printed value. Where “and” joins values, the source holds several entries; their conditions need not be identical. Identical values can stand only once. Some results are limits rather than exact numbers.

Some test systems named below: Escherichia coli; Staphylococcus aureus; Trypanosoma cruzi; Acinetobacter baumannii; Enterococcus faecalis; Staphylococcus capitis 1; Escherichia coli O111:B4; Escherichia coli D21; Streptococcus equinus; Candida tropicalis; Candida albicans; Klebsiella pneumoniae; Bacillus megaterium Bm11; Rhodotorula mucilaginosa; Escherichia coli ML-35; Candida parapsilosis.
Common to all, as to assay: ≥ marks a high value that may be exact or a test limit, other limits are often not marked, values filed in µg/mL are converted to µM
Experiment [1] concerns Bifidobacterium longum subsp. infantis.
Experiment [2] deals with Staphylococcus aureus Cowan 1.
Experiment [3] relates to Yersinia pseudotuberculosis YPIII.
Experiment [4] relates to Staphylococcus aureus ATCC 29213.
Experiment [5] relates to Escherichia coli ATCC 25922.
Experiment [6] deals with Corynebacterium jeikeium ATCC BAA-949.
Experiment [7] deals with Pseudomonas aeruginosa ATCC 27853.
The test system of experiment [8] is Staphylococcus epidermidis ATCC 12228.
Experiment [9] relates to Acinetobacter baumannii ATCC 19606.
Experiment [10] relates to Staphylococcus aureus ATCC 25923.
The subject of experiment [11] is Saccharomyces cerevisiae AS2.430.
Experiment [12] deals with Salmonella enterica subsp. enterica serovar Typhimurium ATCC 14028.
Experiment [13] concerns Klebsiella pneumoniae ATCC 13883.
Experiment [14] has as its system Salmonella enterica subsp. enterica serovar Enteritidis.
For experiment [15], the system named is Serratia marcescens ATCC 8100.
The subject of experiment [16] is Pseudomonas aeruginosa ATCC 9027.
For experiment [17], the system named is Escherichia coli KACC 1039.
Experiment [18] relates to Bacillus subtilis KACC 10196.
Experiment [19] relates to Enterococcus faecalis KACC 11304.
The subject of experiment [20] is Staphylococcus aureus USA 100.
Experiment [21] relates to Staphylococcus saprophyticus.
In experiment [22] the test system is Candida albicans KACC 30071.
Experiment [23] has as its system Klebsiella pneumoniae KCTC 2242.
The test system of experiment [24] is Pseudomonas aeruginosa KACC 10259.
Experiment [25] has as its system Bacillus subtilis CCT 2471.
For experiment [26], the system named is Staphylococcus aureus KACC 10196.
Experiment [27] deals with Candida albicans ATCC 90028.
Experiment [28] relates to Escherichia coli CCT 1371.
Experiment [29] relates to Staphylococcus aureus ATCC 6535.
In experiment [30] the test system is Enterobacter cloacae ATCC 23355.
The subject of experiment [31] is Staphylococcus aureus USA 300.

`CC[C@H](C)[C@H](NC(=O)[C@@H]1CCCN1C(=O)[C@@H](N)CCC(=O)O)C(=O)N1CCC[C@H]1C(=O)N[C@@H](CC(C)C)C(=O)N[C@@H](CCC(=O)O)C(=O)N[C@@H](CO)C(=O)N[C@@H](CCCN=C(N)N)C(=O)N[C@@H](CCC(=O)O)C(=O)N[C@@H](CCC(=O)O)C(=O)O` [EPIPLESREE]: the MIC in [1] was at least 2500 µM; in the experiment with Escherichia coli it was 2090 µM (≈ 2500 µg/mL); with Staphylococcus aureus, 2090 µM (≈ 2500 µg/mL).

For `CC[C@H](C)[C@H](NC(=O)[C@H](C)NC(=O)[C@H](Cc1cnc[nH]1)NC(=O)[C@@H]1CCCN1C(=O)[C@@H](NC(=O)[C@H](CC(C)C)NC(=O)[C@H](CO)NC(=O)[C@H](CC(C)C)NC(=O)[C@@H](N)Cc1ccccc1)[C@@H](C)CC)C(=O)N[C@@H](CC(N)=O)C(=O)N[C@@H](C)C(=O)N[C@H](C(=O)N[C@@H](CO)C(=O)N[C@H](C(=O)N[C@@H](CC(C)C)C(=O)N[C@H](C(=O)N[C@@H](Cc1cnc[nH]1)C(=O)N[C@@H](Cc1cnc[nH]1)C(=O)N[C@@H](CO)C(=O)NCC(N)=O)C(C)C)[C@@H](C)O)C(C)C` [FLSLIPHAINAVSTLVHHSG], the MIC with Trypanosoma cruzi is 14.2 µM (≈ 30 µg/mL).

Turning to `CC[C@H](C)[C@H](N)C(=O)N[C@H](C(=O)NCC(=O)N1CCC[C@H]1C(=O)N[C@H](C(=O)N[C@@H](CC(C)C)C(=O)NCC(=O)N[C@@H](CC(C)C)C(=O)N[C@H](C(=O)NCC(=O)N[C@@H](CO)C(=O)N[C@@H](C)C(=O)N[C@@H](CC(C)C)C(=O)NCC(=O)NCC(=O)N[C@@H](CC(C)C)C(=O)N[C@@H](CC(C)C)C(=O)N[C@@H](CCCCN)C(=O)N[C@@H](CCCCN)C(=O)N[C@H](C(N)=O)[C@@H](C)CC)C(C)C)C(C)C)[C@@H](C)CC` [IIGPVLGLVGSALGGLLKKI], the MIC in [2] is 12.5 µM (≈ 24 µg/mL); in [3], 12.5 µM (≈ 24 µg/mL); in experiment [4], 12.5 µM (≈ 24 µg/mL); in the experiment with Acinetobacter baumannii, at least 50 µM; against Enterococcus faecalis, at least 50 µM; in the experiment on Staphylococcus capitis 1, 12.5 µM (≈ 24 µg/mL). Further, the MIC in experiment [5] is above 50 µM; in experiment [6], 8 µM (≈ 15.3 µg/mL); in experiment [7] it was above 50 µM; in [8], 12.5 µM (≈ 24 µg/mL); in [9] it was 12.5 µM (≈ 24 µg/mL); against Escherichia coli O111:B4 it was at least 50 µM. In the experiment with Escherichia coli D21, this compound registered an MIC of at least 50 µM.

Consider `CC(C)C[C@H](NC(=O)[C@H](CCC(=O)O)NC(=O)[C@@H](N)CCCCN)C(=O)N[C@@H](CCC(=O)O)C(=O)N[C@@H](CCC(=O)O)C(=O)N[C@@H](CCCCN)C(=O)O` [KELEEK], for which the results for the MIC in [5], in experiment [10] and in experiment [11] were 807 µM (≈ 625 µg/mL), 403 µM (≈ 313 µg/mL) and at least 25800 µM, respectively.

Consider `CC(C)C[C@H](NC(=O)[C@H](CCC(N)=O)NC(=O)[C@H](CCC(=O)O)NC(=O)[C@H](CC(C)C)NC(=O)[C@H](Cc1ccccc1)NC(=O)[C@H](CCC(=O)O)NC(=O)[C@H](CCC(N)=O)NC(=O)[C@H](Cc1ccccc1)NC(=O)[C@H](CO)NC(=O)[C@H](CC(C)C)NC(=O)[C@@H]1CCCN1C(=O)[C@H](Cc1ccccc1)NC(=O)[C@H](Cc1c[nH]c2ccccc12)NC(=O)[C@H](Cc1cnc[nH]1)NC(=O)[C@H](CCCN=C(N)N)NC(=O)[C@H](CCCN=C(N)N)NC(=O)[C@@H](N)CCCCN)C(=O)N[C@@H](CCCN=C(N)N)C(=O)N[C@@H](CCCN=C(N)N)C(=O)N[C@@H](Cc1ccccc1)C(=O)N[C@@H](CCCN=C(N)N)C(=O)N[C@@H](CC(=O)O)C(=O)N[C@@H](CCC(N)=O)C(=O)N[C@@H](CC(C)C)C(=O)N1CCC[C@H]1C(=O)N[C@@H](Cc1ccccc1)C(=O)N1CCC[C@H]1C(=O)O` [KRRHWFPLSFQEFLEQLRRFRDQLPFP], for which the MIC against Streptococcus equinus is 31.9 µM (≈ 114 µg/mL); in experiment [12], 31.9 µM (≈ 114 µg/mL); in the experiment with Candida tropicalis, 31.9 µM (≈ 114 µg/mL); with Candida albicans it was above 31.9 µM; in experiment [13], 7.97 µM (≈ 28.5 µg/mL); in the experiment with Klebsiella pneumoniae it was 31.9 µM (≈ 114 µg/mL). Besides, the MIC is 3.92 µM (≈ 14 µg/mL) in experiment [5]; 15.9 µM (≈ 57 µg/mL) in experiment [10]; 31.9 µM (≈ 114 µg/mL) in [14]; 3.92 µM (≈ 14 µg/mL) with Bacillus megaterium Bm11; 31.9 µM (≈ 114 µg/mL) with Staphylococcus aureus; above 31.9 µM in experiment [7]. In addition, the MIC in experiment [8] was 7.97 µM (≈ 28.5 µg/mL); against Rhodotorula mucilaginosa, 31.9 µM and 15.9 µM; in experiment [15], 7.97 µM (≈ 28.5 µg/mL); in the experiment on Escherichia coli ML-35 it was 3.92 µM (≈ 14 µg/mL); against Candida parapsilosis, 31.9 µM (≈ 114 µg/mL).

Regarding `CC[C@H](C)[C@H](NC(=O)[C@H](CO)NC(=O)[C@@H](NC(=O)[C@H](CCCCN)NC(=O)[C@H](Cc1ccccc1)NC(=O)[C@@H]1CCCN1)[C@@H](C)CC)C(=O)N[C@@H](Cc1cnc[nH]1)C(=O)N[C@@H](CC(C)C)C(N)=O` [PFKISIHL], the MIC against Candida albicans was 2.62 µM (≈ 2.5 µg/mL); in [16], 50 µM (≈ 47.7 µg/mL); in experiment [17], 8 µM (≈ 7.63 µg/mL); in experiment [13], 10.5 µM (≈ 9.99 µg/mL); in [18] it was 4 µM (≈ 3.81 µg/mL); in experiment [19], 16 µM (≈ 15.3 µg/mL). Also, the MIC in experiment [20] was at least 50 µM; in [21], 15.7 µM (≈ 15 µg/mL); in [22], 16 µM (≈ 15.3 µg/mL); in [23] it was 8 µM (≈ 7.63 µg/mL); in experiment [24], 8 µM (≈ 7.63 µg/mL); in experiment [7], 10.5 µM (≈ 9.99 µg/mL). The MIC was 10.5 µM (≈ 9.99 µg/mL) in experiment [25]; 16 µM (≈ 15.3 µg/mL) in experiment [26]; at least 50 µM in [27]; 2.62 µM (≈ 2.5 µg/mL) in experiment [28]; 10.5 µM (≈ 9.99 µg/mL) in experiment [29]; 10.5 µM (≈ 9.99 µg/mL) in experiment [30]. In addition, the MIC in experiment [31] was at least 50 µM.
